Results from patent US10206394B2, “Herbicidal compounds” (Syngenta Participations AG, priority 2014, dated 2019).
Where two headings read alike, the source gives them in different places.

Assays:
Experiment in all cases: Glasshouse assay for herbicidal activity (pre- and post-emergence), percentage phytotoxicity
Format in all cases: in vivo
[1] = system: Alopecurus myosuroides (ALOMY); conditions: Alopecurus myosuroides; for pest or weed control at 250 g/ha: visual assessment (100%=total damage, 0%=no damage)
In short: (§1)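 Herbicide was applied to potted plants sown in standard soil, one day after sowing for PRE and after about 12 days for POST. Visual percentage damage ratings followed at 15 DAA (POST) and 20 DAA (PRE).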

Avena fatua (AVEFA) = conditions: Avena fatua; for pest or weed control at 250 g/ha: visual assessment (100%=total damage, 0%=no damage)
In short: as §1

[2] = system: Echinochloa crus-galli (ECHCG); conditions: Echinochloa crus-galli; for pest or weed control at 250 g/ha: visual assessment (100%=total damage, 0%=no damage)
In short: as §1

Lolium perenne (LOLPE) = conditions: Lolium perenne; for pest or weed control at 250 g/ha: visual assessment (100%=total damage, 0%=no damage)
In short: as §1

[3] = post-emergence, 360 h, post-emergence, 15 DAA, read-out: Post-emergence herbicidal activity (percentage phytotoxicity) ALOMY POST
[4] = pre-emergence, 480 h, pre-emergence, 20 DAA, read-out: Pre-emergence herbicidal activity (percentage phytotoxicity) ALOMY PRE
[5] = post-emergence, 360 h, post-emergence, 15 DAA, read-out: Post-emergence herbicidal activity (percentage phytotoxicity) AVEFA POST
[6] = pre-emergence, 480 h, pre-emergence, 20 DAA, read-out: Pre-emergence herbicidal activity (percentage phytotoxicity) AVEFA PRE
[7] = post-emergence, 360 h, post-emergence, 15 DAA, read-out: Post-emergence herbicidal activity (percentage phytotoxicity) ECHCG POST
[8] = pre-emergence, 480 h, pre-emergence, 20 DAA, read-out: Pre-emergence herbicidal activity (percentage phytotoxicity) ECHCG PRE
[9] = post-emergence, 360 h, post-emergence, 15 DAA, read-out: Post-emergence herbicidal activity (percentage phytotoxicity) LOLPE POST
[10] = pre-emergence, 480 h, pre-emergence, 20 DAA, read-out: Pre-emergence herbicidal activity (percentage phytotoxicity) LOLPE PRE

Compound: Cc1cc(-c2ncc(F)cn2)cc(C)c1C1C(=O)CC(CC(N)=O)C1=O (stereo not drawn) [Compound B107]
- pest or weed control at 250 g/ha [1, 3]: 80%
- pest or weed control at 250 g/ha [1, 4]: 60%
- pest or weed control at 250 g/ha (Avena fatua (AVEFA); [5]): 90%
- pest or weed control at 250 g/ha (Avena fatua (AVEFA); [6]): 10%
- pest or weed control at 250 g/ha [2, 7]: 80%
- pest or weed control at 250 g/ha [2, 8]: 60%
- pest or weed control at 250 g/ha (Lolium perenne (LOLPE); [9]): 80%
- pest or weed control at 250 g/ha (Lolium perenne (LOLPE); [10]): 20%

Compound: C=CCNC(=O)CC1CC(=O)C(c2c(C)cc(-c3ncc(F)cn3)cc2C)C1=O (stereo not drawn) [Compound B108]
- pest or weed control at 250 g/ha [1, 3]: 100%
- pest or weed control at 250 g/ha [1, 4]: 100%
- pest or weed control at 250 g/ha (Avena fatua (AVEFA); [5]): 100%
- pest or weed control at 250 g/ha (Avena fatua (AVEFA); [6]): 90%
- pest or weed control at 250 g/ha [2, 7]: 100%
- pest or weed control at 250 g/ha [2, 8]: 100%
- pest or weed control at 250 g/ha (Lolium perenne (LOLPE); [9]): 100%
- pest or weed control at 250 g/ha (Lolium perenne (LOLPE); [10]): 90%

Compound: Cc1cc(-c2ncc(F)cn2)cc(C)c1C1C(=O)CC(CC(=O)NCC(C)(C)C)C1=O (stereo not drawn) [Compound B109]
- pest or weed control at 63 g/ha [1, 3]: 20%
- pest or weed control at 63 g/ha [1, 4]: 70%
- pest or weed control at 63 g/ha (Avena fatua (AVEFA); [5]): 80%
- pest or weed control at 63 g/ha (Avena fatua (AVEFA); [6]): 100%
- pest or weed control at 63 g/ha [2, 7]: 90%
- pest or weed control at 63 g/ha [2, 8]: 80%
- pest or weed control at 63 g/ha (Lolium perenne (LOLPE); [9]): 70%
- pest or weed control at 63 g/ha (Lolium perenne (LOLPE); [10]): 60%

Compound: C#CCN(CC#C)C(=O)CC1CC(=O)C(c2c(C)cc(-c3ncc(F)cn3)cc2C)C1=O (stereo not drawn) [Compound B110]
- pest or weed control at 250 g/ha [1, 3]: 100%
- pest or weed control at 250 g/ha [1, 4]: 90%
- pest or weed control at 250 g/ha (Avena fatua (AVEFA); [5]): 100%
- pest or weed control at 250 g/ha (Avena fatua (AVEFA); [6]): 80%
- pest or weed control at 250 g/ha [2, 7]: 100%
- pest or weed control at 250 g/ha [2, 8]: 100%
- pest or weed control at 250 g/ha (Lolium perenne (LOLPE); [9]): 90%
- pest or weed control at 250 g/ha (Lolium perenne (LOLPE); [10]): 80%

Compound: CCCCNC(=O)CC1CC(=O)C(c2c(C)cc(-c3ncc(F)cn3)cc2C)C1=O (stereo not drawn) [Compound B111]
- pest or weed control at 250 g/ha [1, 3]: 100%
- pest or weed control at 250 g/ha [1, 4]: 70%
- pest or weed control at 250 g/ha (Avena fatua (AVEFA); [5]): 100%
- pest or weed control at 250 g/ha (Avena fatua (AVEFA); [6]): 90%
- pest or weed control at 250 g/ha [2, 7]: 100%
- pest or weed control at 250 g/ha [2, 8]: 100%
- pest or weed control at 250 g/ha (Lolium perenne (LOLPE); [9]): 100%
- pest or weed control at 250 g/ha (Lolium perenne (LOLPE); [10]): 100%

Compound: Cc1cc(-c2ncc(F)cn2)cc(C)c1C1C(=O)CC(CC(=O)NCC(C)C)C1=O (stereo not drawn) [Compound B112]
- pest or weed control at 250 g/ha [1, 3]: 100%
- pest or weed control at 250 g/ha [1, 4]: 100%
- pest or weed control at 250 g/ha (Avena fatua (AVEFA); [5]): 100%
- pest or weed control at 250 g/ha (Avena fatua (AVEFA); [6]): 100%
- pest or weed control at 250 g/ha [2, 7]: 100%
- pest or weed control at 250 g/ha [2, 8]: 100%
- pest or weed control at 250 g/ha (Lolium perenne (LOLPE); [9]): 100%
- pest or weed control at 250 g/ha (Lolium perenne (LOLPE); [10]): 100%

Compound: C#CC(C)(C)NC(=O)CC1CC(=O)C(c2c(C)cc(-c3ncc(F)cn3)cc2C)C1=O (stereo not drawn) [Compound B113]
- pest or weed control at 250 g/ha [1, 3]: 100%
- pest or weed control at 250 g/ha [1, 4]: 90%
- pest or weed control at 250 g/ha (Avena fatua (AVEFA); [5]): 100%
- pest or weed control at 250 g/ha (Avena fatua (AVEFA); [6]): 90%
- pest or weed control at 250 g/ha [2, 7]: 100%
- pest or weed control at 250 g/ha [2, 8]: 100%
- pest or weed control at 250 g/ha (Lolium perenne (LOLPE); [9]): 100%
- pest or weed control at 250 g/ha (Lolium perenne (LOLPE); [10]): 90%

Compound: Cc1cc(-c2ncc(F)cn2)cc(C)c1C1C(=O)CC(CC(=O)NC2CCCC2)C1=O (stereo not drawn) [Compound B114]
- pest or weed control at 250 g/ha [1, 3]: 90%
- pest or weed control at 250 g/ha [1, 4]: 90%
- pest or weed control at 250 g/ha (Avena fatua (AVEFA); [5]): 90%
- pest or weed control at 250 g/ha (Avena fatua (AVEFA); [6]): 60%
- pest or weed control at 250 g/ha [2, 7]: 100%
- pest or weed control at 250 g/ha [2, 8]: 100%
- pest or weed control at 250 g/ha (Lolium perenne (LOLPE); [9]): 90%
- pest or weed control at 250 g/ha (Lolium perenne (LOLPE); [10]): 90%

Compound: Cc1cc(C)c(C2C(=O)CC(CC(=O)NC/C=C/Br)C2=O)c(C)c1 (stereo not drawn) [Compound B115]
- pest or weed control at 250 g/ha [1, 3]: 80%
- pest or weed control at 250 g/ha [1, 4]: 80%
- pest or weed control at 250 g/ha (Avena fatua (AVEFA); [5]): 80%
- pest or weed control at 250 g/ha (Avena fatua (AVEFA); [6]): 50%
- pest or weed control at 250 g/ha [2, 7]: 90%
- pest or weed control at 250 g/ha [2, 8]: 100%
- pest or weed control at 250 g/ha (Lolium perenne (LOLPE); [9]): 100%
- pest or weed control at 250 g/ha (Lolium perenne (LOLPE); [10]): 100%
